pEC50: −log10 of the molar value. Values after ≈ are worked out from the molar mass of the structure shown. Where only a bound is given, the exact number is not on record here.

Data set [1] can be described thus: Microsomal stability in human liver microsomes assessed as intrinsic clearance. The following applies: read-out: CLH. The data set is classed as ADME, Microsome.
Data set [2] can be described thus: Aqueous solubility of the compound in PBS buffer at pH 7.4. The data set is classed as physicochemical.
A short description of data set [3]: Microsomal stability in mouse liver microsomes assessed as intrinsic clearance. The data set is classed as ADME, Microsome. The following applies: read-out: CLH.
Data set [4] deals with Hepatitis B virus. Put plainly: Antiviral activity against Hepatitis B virus infected in human HepDE19 cells assessed as reduction in viral replication incubated for 3 to 7 days by PCR analysis. Format: functional, organism-based.
A short description of data set [5]: Cytotoxicity against human HepDE19 cells incubated for 48 hrs by cell titer-glo luminescent based cell viability assay. The data set is classed as toxicity.
In data set [6] the test system is Hepatitis B virus. Kind of data set: Antiviral activity against Hepatitis B virus Genotype D infected in NOD.CB17-PrkdcSCID/J mouse model assessed as reduction in serum HBV DNA level at po dosed for 7 consecutive days. Format: functional, organism-based.
Data set [7] deals with Hepatitis B virus. Kind of data set: Antiviral activity against Hepatitis B virus Genotype D infected in NOD.CB17-PrkdcSCID/J mouse model assessed as log reduction in serum HBV DNA level at 100 mg/kg,po dosed for 7 consecutive days by qPCR analysis. The data set is classed as functional.
Data set [8] concerns Hepatitis B virus. Kind of data set: Antiviral activity against Hepatitis B virus Genotype D infected in NOD.CB17-PrkdcSCID/J mouse model assessed as log reduction in serum HBV DNA level at 30 mg/kg,po dosed for 7 consecutive days by qPCR analysis. Format: functional.
Data set [9] can be described thus: AUC (0-infinity) in CD-1 mouse at 10 mg/kg,po. Format: ADME, organism-based. Further details: dose 10 mg/kg, route po. The note with it: in vivo.
Data set [10] is described as follows: Cmax in CD-1 mouse at 10 mg/kg,po. The data set is classed as ADME, organism-based. Also on record: dose 10 mg/kg, route po. The following applies: in vivo.
Data set [11] in a line: Clearance in CD-1 mouse at 2 mg/kg,iv. The data set is classed as ADME, organism-based. The note with it: in vivo.
Data set [12] is described as follows: Half life in CD-1 mouse at 2 mg/kg,iv. Format: ADME, organism-based. The following applies: in vivo.
The test system of data set [13] is Hepatitis B virus. Put plainly: Antiviral activity against Hepatitis B virus infected in mouse AML12 cells assessed as reduction in viral replication incubated for 2 days by SYBR green based PCR analysis. Format: functional, organism-based. The following applies: AML12, 48 h.
In data set [14] the test system is Hepatitis B virus. Kind of data set: Antiviral activity against Hepatitis B virus Genotype D infected in NOD.CB17-PrkdcSCID/J mouse model assessed as log reduction in serum HBV DNA level at 10 mg/kg,po dosed for 7 consecutive days by qPCR analysis. Format: functional.

Consider `O=C(N[C@H]1CCc2c(C(=O)Nc3ccc(F)c(Cl)c3)ccc(F)c21)OCc1ncccn1`, for which the microsomal CLint in [1] was 3.5 µL/min/mg; in data set [3] it was 17 µL/min/mg. This compound gave a solubility in data set [2] of 4.5 µM (≈ 2.06 µg/mL). Moreover, the pEC50 in the data set with Hepatitis B virus [4] was 6.92.

Consider `CC(=O)NCCOC(=O)N[C@H]1CCc2c(C(=O)Nc3ccc(F)c(Cl)c3)ccc(F)c21`, for which the results for the microsomal CLint in [1] and in data set [3] were 133 µL/min/mg and 17 µL/min/mg, respectively. The compound also gave a solubility in data set [2] of 43.4 µM (≈ 19.6 µg/mL). In addition, the pEC50 in the data set on Hepatitis B virus [4] is 6.72.

For the compound `O=C(N[C@H]1CCc2c(C(=O)Nc3ccc(F)c(Cl)c3)ccc(F)c21)OCc1cc[nH]n1`, the microsomal CLint in [1] amounted to 8 µL/min/mg; in data set [3] it was 17 µL/min/mg. The compound also gave a solubility in [2] of less than 1.6 µM. In addition, the pEC50 in the data set with Hepatitis B virus [4] is 7.13.

For `Cn1nccc1COC(=O)N[C@H]1CCc2c(C(=O)Nc3ccc(F)c(Cl)c3)ccc(F)c21`, the values for the microsomal CLint in data set [1] and in data set [3] were 38 µL/min/mg and 25 µL/min/mg, respectively. This compound returned a solubility in [2] of 9.1 µM (≈ 4.19 µg/mL). The pEC50 in the data set on Hepatitis B virus [4] is 7.00.

As for `O=C(N[C@H]1CCc2c(C(=O)Nc3ccc(F)c(Cl)c3)ccc(F)c21)OCc1ccon1`, the microsomal CLint in data set [1] turned out to be 4.8 µL/min/mg; in [3], 33 µL/min/mg. Also, in data set [2], the solubility is less than 1.6 µM. Besides, the pEC50 with Hepatitis B virus [4] is 6.92.

Turning to `COC(=O)N[C@H]1COc2c(C(=O)Nc3ccc(F)c(F)c3)cccc21`, the microsomal CLint in data set [1] came out at 5 µL/min/mg; in data set [3] it was 41 µL/min/mg. The pEC50 in the data set on Hepatitis B virus [4] was 5.88.

Regarding `O=C(N[C@H]1CCc2c(C(=O)Nc3ccc(F)c(Cl)c3)ccc(F)c21)OCc1cnccn1`, the microsomal CLint in data set [1] came to 6.9 µL/min/mg; in data set [3] it was 18 µL/min/mg. The solubility in data set [2] was less than 1.6 µM. Besides, the pEC50 in the data set on Hepatitis B virus [4] is 6.92.

For `O=C(N[C@H]1CCc2c(C(=O)Nc3ccc(F)c(Cl)c3)ccc(F)c21)OCc1ccncn1`, the figures for the microsomal CLint in data set [1] and in data set [3] were 1 µL/min/mg and 45 µL/min/mg, respectively. Besides, the solubility in [2] was found to be 7.5 µM (≈ 3.44 µg/mL). The pEC50 in the data set with Hepatitis B virus [4] was 6.41.

For `O=C(N[C@H]1CCc2c(C(=O)Nc3ccc(F)c(Cl)c3)ccc(F)c21)OCc1nc[nH]n1`, the microsomal CLint in data set [1] came to 0.2 µL/min/mg; in data set [3], 9 µL/min/mg. Moreover, in data set [2], the solubility is 6.1 µM (≈ 2.73 µg/mL). Besides, the pEC50 in the data set with Hepatitis B virus [4] is 7.10.

`COCCCOC(=O)N[C@H]1CCc2c(C(=O)Nc3ccc(F)c(Cl)c3)ccc(F)c21`: the microsomal CLint in data set [1] was determined as 10 µL/min/mg; in data set [3], 55 µL/min/mg. The same compound gave a solubility in data set [2] of 3 µM (≈ 1.32 µg/mL). Moreover, the pEC50 with Hepatitis B virus [4] is 6.24.

Regarding `COC(=O)N[C@H]1CCOc2c(C(=O)Nc3ccc(F)c(F)c3)c(F)cc(F)c21`, the cytotoxic concentration (CC50) at 48 h in [5] was more than 25 µM. In addition, in the data set with Hepatitis B virus [4], the pEC50 was 6.10.

With `O=C(N[C@H]1CCc2c(C(=O)Nc3ccc(F)c(Cl)c3)ccc(F)c21)OCc1ncco1`, the microsomal CLint in data set [1] worked out at 7.5 µL/min/mg; in data set [3], 23 µL/min/mg. The solubility in data set [2] was less than 1.6 µM. Besides, in the data set with Hepatitis B virus [4], the pEC50 was 7.15.

For the compound `O=C(N[C@H]1CCc2c(C(=O)Nc3ccc(F)c(Cl)c3)ccc(F)c21)OCc1ccccn1`, the Activity entry is “Dose-Dependent Effect” in the data set on Hepatitis B virus [6], 1.6 log10CFU in the data set with Hepatitis B virus [7] and 0.8 log10CFU with Hepatitis B virus [8]. The same compound had an AUC(0-inf) in [9] of 7.23 µg·h/mL. For the same compound, the peak concentration (Cmax) in data set [10] was found to be 0.695 µg/mL. Besides, the microsomal CLint was 11 µL/min/mg in [1] and 36 µL/min/mg in data set [3]. The compound further showed a solubility in data set [2] of less than 1.6 µM. In data set [11], this compound displayed a clearance of 1.68 L/h/kg. Also, in the data set on Hepatitis B virus [4], the pEC50 was 7.02. In [12], this compound showed a half-life of 1.2 h.

Consider `COC(=O)N[C@H]1CCc2c(C(=O)Nc3ccc(F)c(F)c3)cccc21`, for which the microsomal CLint in data set [1] was found to be 0.6 µL/min/mg; in data set [3] it was 9.2 µL/min/mg. In addition, in the data set on Hepatitis B virus [4], the negative-log EC50 (pEC50) was 6.23.

As to `COC(=O)N[C@H]1CCOc2c(C(=O)Nc3ccc(F)c(Cl)c3)ccc(F)c21`, the CC50 at 48 h in [5] is more than 25 µM. Besides, in the data set on Hepatitis B virus [4], the pEC50 is 6.70.

As for `COC(=O)N[C@H]1CCOc2c(C(=O)Nc3ccc(F)c(Cl)c3)cccc21`, the CC50 at 48 h in data set [5] is more than 25 µM. Besides, the negative logarithm of the EC50 (pEC50) was 6.55 in the data set on Hepatitis B virus [13] and 6.07 with Hepatitis B virus [4].

The compound `COC(=O)N[C@H]1CCOc2c(C(=O)Nc3cc(F)c(F)c(F)c3)cccc21` returned a CC50 at 48 h in [5] of more than 25 µM. In addition, the pEC50 in the data set with Hepatitis B virus [4] is 5.93.

In the case of `O=C(Nc1ccc(F)c(Cl)c1)c1cccc2c1OCCO2`, the pEC50 in the data set on Hepatitis B virus [13] was 6.70.

`Cn1ccc(COC(=O)N[C@H]2CCc3c(C(=O)Nc4ccc(F)c(Cl)c4)ccc(F)c32)n1`: the Activity entry in the data set with Hepatitis B virus [6] is “Dose-Dependent Effect”; in the data set on Hepatitis B virus [14], 0.5 log10CFU; in the data set with Hepatitis B virus [7], 2.5 log10CFU; in the data set with Hepatitis B virus [8] it was 1.4 log10CFU. This compound also displayed an AUC(0-inf) in [9] of 5.16 µg·h/mL. In data set [10], the Cmax came out at 0.913 µg/mL. The microsomal CLint was 7.9 µL/min/mg in [1] and 23 µL/min/mg in data set [3]. This compound came in with a solubility in [2] of 4.8 µM (≈ 2.21 µg/mL). Also, the clearance in [11] was 1.14 L/h/kg. The negative logarithm of the EC50 (pEC50) in the data set with Hepatitis B virus [4] was 7.33. The same compound gave a half-life in data set [12] of 3.5 h.

Consider `COCCOC(=O)N[C@H]1CCc2c(C(=O)Nc3ccc(F)c(Cl)c3)ccc(F)c21`, for which the microsomal CLint stood at 8.2 µL/min/mg in data set [1] and 8.1 µL/min/mg in data set [3]. Further, the concentration in solution in [2] (solubility) came to 2.8 µM (≈ 1.19 µg/mL). The pEC50 in the data set with Hepatitis B virus [4] was 6.72.

Consider `COC(=O)N[C@H]1CCCc2c(C(=O)Nc3ccc(F)c(F)c3)cccc21`, for which the microsomal CLint in [1] came to 0.3 µL/min/mg; in [3], 21 µL/min/mg. In addition, the pEC50 in the data set with Hepatitis B virus [4] was 5.07.

Consider `COC(=O)N[C@H]1CCOc2c(C(=O)Nc3ccc(F)c(F)c3)cccc21`, for which the CC50 at 48 h in [5] was more than 25 µM. The pEC50 in the data set on Hepatitis B virus [13] is 6.15; with Hepatitis B virus [4], 5.65.

As for `COC(=O)N[C@H]1CCCOc2c(C(=O)Nc3ccc(F)c(F)c3)cccc21`, in the data set with Hepatitis B virus [4], the pEC50 is less than 4.60.

For `COC(=O)N[C@H]1CCc2c(C(=O)Nc3ccc(F)c(Cl)c3)ccc(F)c21`, the microsomal CLint in [1] amounted to 3.5 µL/min/mg; in [3] it was 9.2 µL/min/mg. Moreover, the solubility in [2] is less than 1.6 µM. The negative logarithm of the EC50 (pEC50) in the data set with Hepatitis B virus [4] is 6.77.

In turn, `COC(=O)N[C@H]1CCOc2c1ccc(F)c2C(=O)Nc1ccc(F)c(F)c1` returned a CC50 at 48 h in data set [5] of more than 25 µM. Also, in the data set on Hepatitis B virus [4], the pEC50 was 5.43.

Turning to `O=C(N[C@H]1CCc2c(C(=O)Nc3ccc(F)c(Cl)c3)ccc(F)c21)OCCO`, the microsomal CLint is 1 µL/min/mg in data set [1] and 3 µL/min/mg in [3]. For the same compound, the solubility in data set [2] worked out at 6.4 µM (≈ 2.63 µg/mL). In addition, the negative logarithm of the EC50 (pEC50) in the data set with Hepatitis B virus [4] is 6.70.

With `O=C(N[C@H]1CCc2c(C(=O)Nc3ccc(F)c(Cl)c3)ccc(F)c21)OCCn1ccnc1`, the microsomal CLint in data set [1] and in [3] was 20 µL/min/mg each time. Besides, the solubility in data set [2] worked out at 16.9 µM (≈ 7.79 µg/mL). The pEC50 with Hepatitis B virus [4] was 6.52.

As for `COC(=O)N[C@H]1CCOc2c1ccc(F)c2C(=O)Nc1ccc(F)c(Cl)c1`, the CC50 at 48 h in [5] was more than 25 µM. Besides, the pEC50 in the data set with Hepatitis B virus [4] was 5.65.

The compound `COC(=O)N[C@H]1CCOc2c(C(=O)Nc3ccc(F)c(F)c3)ccc(F)c21` showed a CC50 at 48 h in data set [5] of more than 25 µM. In addition, in the data set with Hepatitis B virus [4], the pEC50 is 6.24.

`Cn1ccnc1COC(=O)N[C@H]1CCc2c(C(=O)Nc3ccc(F)c(Cl)c3)ccc(F)c21`: the values for the microsomal CLint in data set [1] and in data set [3] were 104 µL/min/mg and 96 µL/min/mg, respectively. In data set [2], this compound had a solubility of less than 1.6 µM. For the same compound, the pEC50 in the data set on Hepatitis B virus [4] was 6.55.

Values taken from ChEMBL document CHEMBL5365440, “Design, synthesis, and structure-activity relationship of a bicyclic HBV capsid assembly modulator chemotype leading to the identification of clinical candidate AB-506” (Bioorg Med Chem Lett, 2023).
